From article PMC9712021 (Advances in Pharmacological and Pharmaceutical Sciences, 2022)

Key:
[1] = Hemolytic activity in mice erythrocytes; format: cell-based, Mus musculus; conditions: male, Swiss albino, mouse, pH 7.4, 37°C, 2 h
Description: This test was performed on adult Swiss albino mouse (Mus musculus) erythrocytes. The mouse was collected from the Central Animal House of the Federal University of Piaui, Brazil. It was allowed free access to standard food and water ad libitum and was kept under controlled lighting (12 h dark/light cycles) at 24 ± 2°C. Blood was collected from the retro-orbital plexus of the mouse (male, 24 gm body weight). Hemolytic activity in mouse erythrocytes was performed, according to Jamialahmadi et al..

[2] = DPPH radical scavenging capacity assay; conditions: 0.9–14.4 μg/mL; standard Trolox
Description: The DPPH assay was performed according to the method described by Abderrahim et al.. Briefly, a solution containing 300 μL of monoterpenes (0.9–14.4 μg/mL) was added to 2.7 mL of DPPH^• solution (0.5 mM in ethanol). After 30 min, the absorbance was measured using a spectrophotometer (Shimadzu, Japan) at 517 nm.

[3] = test system: S. cerevisiae EG103 (SODWT); assay: S. cerevisiae central disc test, oxidative damage, strain SODWT; format: cell-based, Saccharomyces cerevisiae; set-up: unit not given here
From the text: (§1) The central disc test was done according to the method presented by Islam et al.. Superoxide dismutase (CuZnSOD-Sod1) is a cytosolic enzyme that is faulty in strain EG118, whereas mitochondrial SOD is faulty in strain EG110 (MnSOD-Sod2). The strain EG133 has both Sod1 and Sod2 defects, while EG223 has a cytosolic catalase deficiency (Cat1). While EG103 is a competent strain that is identical to the wild-type (SODWT), EG is a dual isogenic strain for the Sod1 and Cat1 genes.

[4] = test system: S. cerevisiae EG118 (Sod1∆); assay: S. cerevisiae central disc test, oxidative damage, strain Sod1∆; format: cell-based, Saccharomyces cerevisiae
From the text: as §1

[5] = test system: S. cerevisiae EG110 (Sod2∆); assay: S. cerevisiae central disc test, oxidative damage, strain Sod2∆; format: cell-based, Saccharomyces cerevisiae
From the text: as §1

[6] = test system: S. cerevisiae EG133 (Sod1∆Sod2∆); assay: S. cerevisiae central disc test, oxidative damage, strain Sod1∆Sod2∆; format: cell-based, Saccharomyces cerevisiae
From the text: as §1

[7] = test system: S. cerevisiae EG223 (Cat1∆); assay: S. cerevisiae central disc test, oxidative damage, strain Cat1∆; format: cell-based, Saccharomyces cerevisiae
From the text: as §1

[8] = test system: S. cerevisiae EG (Sod1∆Cat1∆); assay: S. cerevisiae central disc test, oxidative damage, strain Sod1∆Cat1∆; format: cell-based, Saccharomyces cerevisiae
From the text: as §1

[9] = test system: S. cerevisiae strains (SODWT, Sod1Δ, Sod2Δ, Cat1Δ, Sod1/Sod2Δ, Cat1Δ/Sod1Δ); assay: In vivo antioxidant (S. cerevisiae) test, all strains tested; format: cell-based, Saccharomyces cerevisiae; conditions: all strains and concentrations tested
From the text: as §1

[10] = set-up: method as in Oliveira [41]; conditions: concentrations from 7.83 to 500 μg/mL; ref Oliveira [41]; cited from earlier work

In the case of `C=CCc1ccc(OC)cc1` [Estragole, estragole], the hemolysis at 2 h, 31.25 μg/mL ([1]; 31.25 μg/mL) is reported as 1.67 ± 0.35%, the hemolysis at 2 h, 62.5 μg/mL ([1]; 62.5 μg/mL) is reported as 3.49 ± 0.26% and the hemolysis at 2 h, 125 μg/mL ([1]; 125 μg/mL) is reported as 4.45 ± 0.47%. The hemolysis at 2 h, 250 μg/mL ([1]; 250 μg/mL) was 8.21 ± 0.35%, the hemolysis at 2 h, 500 μg/mL ([1]; 500 μg/mL) was 10.3 ± 1.35% and the “DPPH radical scavenging activity” value [2] was “highest scavenging activity”. It also gave an oxidative damage ([3]; 0.9 μg/mL) of 2.00 ± 0.54, an oxidative damage ([3]; 1.8 μg/mL) of 1.50 ± 0.70 and an oxidative damage ([3]; 7.2 μg/mL) of 2.00 ± 1.41. The oxidative damage ([3]; 14.4 μg/mL) was 2.50 ± 0.70, the oxidative damage ([3]; 32 μg/mL) was 2.00 ± 0.54 and the oxidative damage ([3]; 64 μg/mL) was 2.00 ± 0.54. For the same compound, the oxidative damage ([3]; 128 μg/mL) was 1.50 ± 0.70, the oxidative damage ([3]; 3.6 mg/mL) was 1.00 ± 1.41 and the oxidative damage ([3]; 256 mg/mL) was 3.50 ± 0.70. The oxidative damage ([3]; 500 mg/mL) was 1.50 ± 0.70, the oxidative damage ([4]; 0.9 μg/mL) was 2.00 ± 1.41 and the oxidative damage ([4]; 1.8 μg/mL) was 1.50 ± 0.70. The oxidative damage ([4]; 7.2 μg/mL) was 2.00 ± 1.41, the oxidative damage ([4]; 14.4 μg/mL) was 2.00 ± 0.54 and the oxidative damage ([4]; 32 μg/mL) was 2.50 ± 0.70. For the same compound, the oxidative damage ([4]; 64 μg/mL) was 2.50 ± 0.70, the oxidative damage ([4]; 128 μg/mL) was 2.50 ± 0.70 and the oxidative damage ([4]; 3.6 mg/mL) was 2.50 ± 0.70. The oxidative damage ([4]; 256 mg/mL) was 2.50 ± 0.70, the oxidative damage ([4]; 500 mg/mL) was 1.50 ± 0.70 and the oxidative damage ([5]; 0.9 μg/mL) was 3.00 ± 1.41. It also gave an oxidative damage ([5]; 1.8 μg/mL) of 3.50 ± 0.70, an oxidative damage ([5]; 7.2 μg/mL) of 2.00 ± 0.54 and an oxidative damage ([5]; 14.4 μg/mL) of 3.50 ± 0.70. The oxidative damage ([5]; 32 μg/mL) was 2.00 ± 0.54, the oxidative damage ([5]; 64 μg/mL) was 3.50 ± 0.70 and the oxidative damage ([5]; 128 μg/mL) was 3.50 ± 0.70. The oxidative damage ([5]; 3.6 mg/mL) was 2.00 ± 0.54, the oxidative damage ([5]; 256 mg/mL) was 2.50 ± 0.70 and the oxidative damage ([5]; 500 mg/mL) was 3.00 ± 1.41. For the same compound, the oxidative damage ([6]; 0.9 μg/mL) was 3.50 ± 0.70, the oxidative damage ([6]; 1.8 μg/mL) was 3.50 ± 0.70 and the oxidative damage ([6]; 7.2 μg/mL) was 2.50 ± 0.70. It also gave an oxidative damage ([6]; 14.4 μg/mL) of 3.50 ± 0.70, an oxidative damage ([6]; 32 μg/mL) of 2.50 ± 0.70 and an oxidative damage ([6]; 64 μg/mL) of 1.50 ± 0.70. It also gave an oxidative damage ([6]; 128 μg/mL) of 3.00 ± 1.41, an oxidative damage ([6]; 3.6 mg/mL) of 2.50 ± 0.70 and an oxidative damage ([6]; 256 mg/mL) of 2.50 ± 2.12. For the same compound, the oxidative damage ([6]; 500 mg/mL) was 2.50 ± 0.70, the oxidative damage ([7]; 0.9 μg/mL) was 3.00 ± 1.41 and the oxidative damage ([7]; 1.8 μg/mL) was 4.50 ± 0.70. The oxidative damage ([7]; 7.2 μg/mL) was 1.50 ± 2.12, the oxidative damage ([7]; 14.4 μg/mL) was 4.50 ± 2.12 and the oxidative damage ([7]; 32 μg/mL) was 3.00 ± 1.41. For the same compound, the oxidative damage ([7]; 64 μg/mL) was 7.00 ± 1.41^∗, the oxidative damage ([7]; 128 μg/mL) was 2.50 ± 0.70 and the oxidative damage ([7]; 3.6 mg/mL) was 4.00 ± 1.41. The oxidative damage ([7]; 256 mg/mL) was 3.00 ± 1.41, the oxidative damage ([7]; 500 mg/mL) was 4.50 ± 0.70 and the oxidative damage ([8]; 0.9 μg/mL) was 3.50 ± 0.70. It also gave an oxidative damage ([8]; 1.8 μg/mL) of 4.00 ± 2.82, an oxidative damage ([8]; 7.2 μg/mL) of 3.50 ± 0.70 and an oxidative damage ([8]; 14.4 μg/mL) of 5.00 ± 0.0. It also gave an oxidative damage ([8]; 32 μg/mL) of 4.50 ± 0.70, an oxidative damage ([8]; 64 μg/mL) of 3.00 ± 1.41 and an oxidative damage ([8]; 128 μg/mL) of 4.50 ± 2.12. The oxidative damage ([8]; 256 μg/mL) was 3.00 ± 2.82, the oxidative damage ([8]; 3.6 mg/mL) was 4.00 ± 1.41 and the oxidative damage ([8]; 500 mg/mL) was 3.50 ± 0.70. For the same compound, the “percentage modulation of oxidative damage caused by the stressor H2O2” value [9] was “more than 60%” and the antioxidant capacity [10] was “mild antioxidant capacity”.
